# Measured values: paper PMC4492579, “Potent and Selective Triazole-Based Inhibitors of the Hypoxia-Inducible Factor Prolyl-Hydroxylases with Activity in the Murine Brain” (PLoS ONE, 2015)
# pEC50: −log10 of the molar value. Counter-ions that a name gives are not always drawn. Like-named read-outs stand apart in the source and are kept apart here.
# Assays:
# [1] = target: PHD2 (Homo sapiens, UniProt Q9GZT9); assay: Competition-based NMR reporter ligand displacement assay ([13C]-2OG / [13C]-CODD); assay type: binding; conditions: 50 μM apo-PHD2, 400 μM Zn(II), 400 μM competitor
# Protocol: For 2OG displacement assays, selective ^1H-^13C 1D-HSQC experiments were conducted at 700 MHz using a Bruker Avance III spectrometer equipped with an inverse TCI cryoprobe optimized for ^1H observation. The CLIP-HSQC sequence was used (without ^13C decoupling). Typical experimental parameters were as follows: acquisition time 0.58 s, relaxation delay 2 s, number of transients 256−1600. The 1JCH was set to 160 Hz. For the selective version of the experiment, a 6.8 ms Q3 180 degree pulse was used, and selective irradiation was applied at the appropriate [^13C] chemical shift. Three millimeter MATCH tubes with a 160 μL final sample volume were used. Solutions were buffered using Tris-D11 50 mM (pH 7.5) dissolved in 90% H2O and 10% D2O. Assays were conducted at 298 K in solutions typically containing 50 μM apo-PHD2, 400 μM Zn(II), 50 μM 1,2,3,4-[^13C]-2OG or [^13C]-labeled CODD (uniformly [^13C]-labeled at proline-564) and 400 μM competitor (except unlabeled CODD competitor used at 800 μM). Selective irradiation was applied at 30.5 ppm for [^13C]-2OG and 24.25 ppm for [^13C]-labeled CODD. Percentage displacement was calculated according to equation: (I−I0)/(Iblank−I0) where I 0 is the intensity of the reporter in the presence of protein but without inhibitor, I is the intensity of the reporter in the presence of protein and inhibitor, and I blank is the intensity of the reporter without protein or inhibitor.
# The results reveal that the previously described inhibitor IOX2 displaces 2OG from PHD2 (S3A Fig), consistent with its predicted binding mode. […] Previous crystallographic studies have shown that the HIF substrate can still bind even when the 2OG active site is occupied by some, but not all, inhibitors.
# [2] = tested on: MCF-7, Hep3B and U2OS cells; assay: Immunoblotting of HIF1α induction in MCF-7, Hep3B and U2OS cells; assay type: cell-based, human; conditions: immunoblot
# Protocol: (§1) Human cell lines (RCC4, HeLa, Hep3B, MCF-7 and U2OS) were cultured in DMEM (D6546-500ML; Sigma Aldrich) each supplemented with 10% fetal bovine serum (F7524-500ML; Sigma Aldrich), 2 mM L-glutamine (G7513- 100ML; Sigma Aldrich), 50 units/ml of penicillin, and 50 μg/ml of streptomycin (P0781-100ML; Sigma Aldrich). The RCC4 cell line was a gift from C.H.C.M. Buys (University of Groningen, [2]), the HeLa and Hep3B cell lines were from the European Collection of Cell Cultures (ECACC), the MCF-7 cell line was from the American Type Culture Collection (ATCC) and the U2OS cell line was a gift from S.Galey (ICRF Clare Hall Laboratories, United Kingdom). Cells were treated either with DMSO (control) or compounds (dissolved in DMSO) and added directly into the cell culture medium to the desired final concentration for 4–5 h as previously described.
# Cells were extracted using urea/SDS buffer (6.7 M urea, 10 mM Tris-HCl pH 6.8, 10% glycerol and 1% SDS) and processed for immunoblotting as described. […]
# [3] = tested on: MCF-7; assay: Quantitative HIF1α MSD immunoassay, MCF-7; assay type: cell-based; conditions: Homo sapiens, read-out: HIF1α EC50
# Protocol: Cells were seeded into 96-well cell culture plates (150 μl culture volume) at approximately 60–70% confluency at least 12 h prior to the compound treatment. Half of the culture medium (75 μl/well) were removed and 75 μl/well of medium containing the desired concentrations of compounds were added into cells for 5 h. The cell medium was then removed and the cells were washed once with phosphate buffered saline (PBS), followed by the addition of lysis buffer (20 mM Tris pH 7.4, 450 mM NaCl, 1 mM EDTA, 1 mM EGTA, 0.5% Triton X-100, 1x complete protease inhibitor cocktail and 100 μM DFO). Plates were then left at 4°C with shaking. […] Plates were washed thrice with Tris Wash Buffer, added with 150 μl/well 2X Read Buffer (R92TC, Meso Scale Discovery) before being read with an MSD Sector S600 plate reader (Meso Scale Discovery). Signals generated were normalized to “lysis buffer-only” controls.
# To quantify the cellular efficiency of PHD inhibition, we developed an electrochemiluminescence-based assay for the quantification of HIF1α levels using the Meso Scale Discovery (MSD, http://www.mesoscale.com) technology (HIF1α MSD assay), which is based on the capture and detection of HIF1α protein using two specific HIF1α antibodies. […]
# [4] = tested on: RCC4 cells; assay: Immunoblotting of HIF1α hydroxylation in VHL-defective RCC4 cells; assay type: cell-based, human; conditions: immunoblot
# Protocol: as §1
# Cells were extracted using urea/SDS buffer (6.7 M urea, 10 mM Tris-HCl pH 6.8, 10% glycerol and 1% SDS) and processed for immunoblotting as described. The following primary antibodies were used for immunoblotting: mouse monoclonal HIF1α antibody clone 54 (610958, BD Transduction Laboratories, 1:1000), rabbit polyclonal HIF1α hydroxy-Pro402 antibody (07–1585, Millipore, 1:1000), rabbit monoclonal HIF1α hydroxy-Pro564 antibody clone D43B5 (3434S, Cell Signaling, 1:500), mouse monoclonal HIF1α hydroxy-Asn803 antibody (a kind gift from Dr M. K. Lee, Republic of Korea, 1:4000), mouse monoclonal PHD2 antibody clone 76a (1:10), mouse monoclonal FIH antibody clone 162c (1:200) and β-actin/HRP (clone AC15, Abcam). HRP-conjugated swine polyclonal anti-rabbit IgG (P0399, Dako), and goat polyclonal anti-mouse IgG (P0447, Dako) were used as secondary antibodies.
# In this cell line, the extent of the differential HIF1α prolyl hydroxylation at the N-terminal and C-terminal oxygen-dependent degradation domains (HyPro402 and HyPro564, respectively), as well as HIF1α asparaginyl hydroxylation at the C-terminal transactivation domain (HyAsn803) can be interrogated by immunoblotting using hydroxylation specific antibodies.
# Sequence of PHD2 (Q9GZT9 whole entry): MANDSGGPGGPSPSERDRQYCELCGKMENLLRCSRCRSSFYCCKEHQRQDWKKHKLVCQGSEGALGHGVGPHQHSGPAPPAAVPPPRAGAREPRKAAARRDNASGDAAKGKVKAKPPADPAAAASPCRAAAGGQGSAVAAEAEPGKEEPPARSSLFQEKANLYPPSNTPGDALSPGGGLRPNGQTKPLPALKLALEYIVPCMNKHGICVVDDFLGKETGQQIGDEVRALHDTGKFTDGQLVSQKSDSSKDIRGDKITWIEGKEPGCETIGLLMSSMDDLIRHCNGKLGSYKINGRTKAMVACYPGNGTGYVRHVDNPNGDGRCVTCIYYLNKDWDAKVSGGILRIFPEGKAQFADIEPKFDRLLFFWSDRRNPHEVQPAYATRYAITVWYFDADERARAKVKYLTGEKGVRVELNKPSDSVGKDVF
Compound,displacement of [13C]-2OG from PHD2 [1],displacement of [13C]-CODD from PHD2 [1],HIF1α induction [2],"pEC50 ([3]; MCF7, MCF-7, 5 h treatment, MSD assay)","pEC50 ([3]; MCF7, 5 h)","HIF1α prolyl-hydroxylation (HyPro402, HyPro564) [4]",HIF1α asparaginyl-hydroxylation (HyAsn803) ([4]; 50 μM)
O=C(O)CNC(=O)c1c(O)c2ccccc2n(Cc2ccccc2)c1=O [IOX2],displaces 2OG,not displaced,Induction of HIF1α levels were observed,3.94,–,–,–
"CC(C)(C)OC(=O)c1ccc(-n2[nH]cc(-n3ccnn3)c2=O)nc1 [IOX4, t-Butyl 6-(5-oxo-4-(1H-1,2,3-triazol-1-yl)-2,5-dihydro-1H-pyrazol-1-yl)nicotinate]",displaces 2OG,remained bound,Induction of HIF1α levels were observed,–,4.93,block prolyl-hydroxylation of HIF1α at both NODD (HyPro402) and CODD (HyPro564),some apparent inhibition
"O=C(O)c1ccc(-n2[nH]cc(-n3ccnn3)c2=O)nc1 [compound 1, 6-(5-oxo-4-(1H-1,2,3-triazol-1-yl)-2,5-dihydro-1H-pyrazol-1-yl)pyridine-3-carbocylic acid hydrochloride]",–,–,–,–,–,block prolyl-hydroxylation of HIF1α at both NODD (HyPro402) and CODD (HyPro564),–
